Test results reported in patent US10000765B2, “Gene encoding cytochrome P450, and use thereof” (NATIONAL INSTITUTE OF AGROBIOLOGICAL SCIENCES, priority 2011, dated 2018).

How the values were obtained:
[1] = system: Wild-type rice (Nipponbare); assay: Drug sensitivity test on gellan gum medium, wild-type rice; type: in vivo, Oryza sativa; settings: plant height compared with drug-free medium
Experimental: Next, 1.6 g of Hoagland's mix (Sigma-Aldrich Corporation) and 3 g of Gelrite (Wako Pure Chemical Industries, Ltd.) were suspended in 1 L of distilled water. Then, the mixture was dissolved and heated in a microwave. After that, the mixture was cooled to 50 to 60 degree C., and BS was added at a final concentration of 1 μM. This mixture was dispensed into 30-mL tubular bottles at 15 mL to prepare a gellan gum medium. Next, CSSL rice paddies were soaked in 0.5% sodium hypochlorite for about 20 minutes, and were then washed well with water. These paddies were soaked in distilled water, and kept at 27 degree C. for 3 to 5 days for germination. Germinating seeds were softly planted in sprout-side up on the gellan gum medium. These samples, together with a beaker filled with distilled water, were placed in a transparent case, which was then covered with a clear-plastic wrap. These samples were grown at 27 degree C. under fluorescent light illumination (14 hours of a light period and 10 hours of a dark period) for 7 to 9 days.
According to the method of Example 1, a gellan gum medium containing a test drug at a concentration of 0.01, 0.1, 1, or 10 μM was prepared. Rice seeds were sterilized, germinated, seeded in the medium, and cultivated.

[2] = system: Rice (Nipponbare) calluses transformed with pCAMBIA1390-KasCYP72A31; assay: Redifferentiation and rooting test, rice callus transformed with pCAMBIA1390-KasCYP72A31; type: cell-based, Oryza sativa
Experimental: (§1) After selective culturing, the callus was transplanted onto a rice redifferentiation medium RE-III (containing 50 ppm hygromycin or 0.25 μM bispyribac sodium), cultured at 27 degree C. under 16L/8D conditions, and led to redifferentiate. The callus was plated after 2 weeks. At additional about 2 to 3 weeks, a redifferentiated, transformed rice (T0) was obtained. Once a differentiated shoot and/or root had appeared, the rice was transplanted onto a hormone-free (HF) medium (containing 50 ppm hygromycin or 0.25 μM bispyribac sodium).
(§2) According to Example 5, an HptII::35Spro::Kasalath CYP72A31::Tnos vector plasmid (pCAMBIA1390-KasCYP72A31, a kasCYP72A31 overexpression construct) or, as controls, an HptII::35Spro::sGFP::Tnos vector plasmid (pCAMBIA1302-sGFP, an sGFP overexpression construct) or an OsALS (W548L/S627I)::OsAct-1pro::sGFP::Tnos vector plasmid (pSTARA-sGFP, a BS-resistant construct) was introduced into a rice variety (a cultivar: Nipponbare) by using an Agrobacterium method. According to a schedule designated in FIG. 12A), transformed calluses were selected with 50 ppm hygromycin. […] Of all the calluses, 43 calluses were transplanted onto a redifferentiation medium containing 0.25 μM BS.
Rice (Nipponbare) calluses transformed with a pCAMBIA1390-KasCYP72A31 construct in Example 8 were obtained by 50 ppm hygromycin selection. When these calluses were transplanted onto a redifferentiation medium containing 50 ppm hygromycin, shoots and roots were differentiated from the callus at a redifferentiation efficiency of 95% (38/40 calluses). Subsequently, 25 redifferentiation calluses transformed with a pCAMBIA1390-KasCYP72A31 construct were transplanted onto a hormone-free medium containing 1 μM BS. As a result, 7 calluses had extending roots (a root extension rate of 28%. FIG. 15).

[3] = system: Rice (Nipponbare) calluses transformed with pCAMBIA1302-sGFP; assay: Redifferentiation and rooting test, control rice callus transformed with pCAMBIA1302-sGFP; type: cell-based, Oryza sativa
Experimental: as §1, §2
Rice (Nipponbare) calluses transformed with a pCAMBIA1390-KasCYP72A31 construct in Example 8 were obtained by 50 ppm hygromycin selection. […]

[4] = system: Arabidopsis thaliana K32-1-1, K32-3-1 and K32-5-1; assay: Growth test in BS-containing medium, Arabidopsis transformed with Kasalath-derived CYP72A32; type: in vivo; settings: day 10 from onset of cultivation, compared to NT
Source text: (§3) In this Example, Agrobacterium as prepared in Example 4 was used to introduce HptII::35Spro::Kasalath CYP72A31::Tnos vector plasmid (pCAMBIA1390-KasCYP72A31), HptII::35Spro::Kasalath CYP72A32::Tnos vector plasmid (pCAMBIA1390-KasCYP72A32), or HptII::35Spro::Kasalath CYP72A33::Tnos vector plasmid (pCAMBIA1390-KasCYP72A33) into Arabidopsis thaliana (ecotype: Col-0) by using a floral-dip method. The floral-dip method followed a standard method. […] K31-4-2 and K31-6-5 were selected as fixed lines derived from pCAMBIA1390-KasCYP72A31; K32-1-1, K32-3-1, and K32-5-1 were selected as fixed lines derived from pCAMBIA1390-KasCYP72A32; and K33-1-3 and K33-2-4 were selected as fixed lines derived from pCAMBIA1390-KasCYP72A33. Their seeds were seeded in a medium containing each concentration of BS, and cultivated for 10 days. FIGS. 16A and 16B illustrate the results.
Next, 15 seeds for each of non-transformed Arabidopsis thaliana (NT which is denoted by “Col-0” in FIGS. 18A-18C) and transformed plant bodies (K32-1-1 which is denoted by “K32oe-1-1” in FIGS. 18A-18C, K32-3-1 which is denoted by “K32oe-3-1” in FIGS. 18A-18C, and K32-5-1 which is denoted by “K32oe-5-” in FIGS. 18A-18C) were cultivated on a medium containing each concentration of BS. […]

[5] = system: Arabidopsis thaliana K33-1-3 and K33-2-4; assay: Growth test in BS-containing medium, Arabidopsis transformed with Kasalath-derived CYP72A33; type: in vivo; settings: day 10 from onset of cultivation, compared to NT
Source text: as §3
Next, 15 seeds for each of non-transformed Arabidopsis thaliana (NT which is denoted by “Col-0” in FIGS. 19A-19C) and transformed plant bodies (K33-1-3 which is denoted by “K33oe-1-3” in FIGS. 19A-19C and K33-2-4 which is denoted by “K33oe-2-4” in FIGS. 19A-19C) were cultivated on a medium containing each concentration of BS. […]

[6] = hormone-free medium containing 1 μM BS
[7] = redifferentiation medium containing 0.25 μM BS

COc1cc(OC)nc(Oc2cccc(Oc3nc(OC)cc(OC)n3)c2C(=O)O)n1 [BS, bispyribac sodium]
CK ratio (%) ([1]; drug 0.01 μM): 82%
CK ratio (%) ([1]; drug 0.1 μM): 64%
CK ratio (%) ([1]; drug 1 μM): 22%
CK ratio (%) ([1]; drug 10 μM): 3%
Calluses with extending roots of all redifferentiation calluses ([2]; hormone-free medium containing 0.25 μM BS): 73%
Root extension rate [2, 6]: 28%
Redifferentiation efficiency [2, 7]: 91%
Rooting and survival of plant bodies [3, 6]: killed the plant bodies
Redifferentiation [3, 7]: found not to include those redifferentiated
BS sensitivity (germinated seeds, emerging of true leaves, fresh weight of above-ground part) [4]: BS sensitivity equivalent to NT
BS sensitivity (germinated seeds, emerging of true leaves, fresh weight of above-ground part) [5]: BS sensitivity equivalent to NT
